From US8575193B2, “N-substituted tetrahydroisoquinoline/isoindoline hydroxamic acid compounds” (4SC AG, priority 2008, dated 2013)
Counter-ions that a name gives are not always drawn.

Key:
[1] = Cellular cytotoxicity assay (Alamar Blue/Resazurin), RKOp21; assay type: cell-based; details: human, RKOp21 cells; RKOp21, 72 hours incubation, Resazurin; read-out: RKOp21 Cytotoxicity [pIC50] (converted)
Experimental: (§1) The anti-proliferative activity of the compounds as described herein, is evaluated with various solid and hematological cancer cell lines using the Alamar Blue (Resazurin) cell viability assay (O'Brien et al, Eur J Biochem 267, 5421-5426, 2000). Resazurin is reduced to the fluorescent resorufin by cellular dehydrogenase activity, correlating with viable, proliferating cells. Test compounds are dissolved as 20 mM solutions in dimethylsulfoxide (DMSO) and subsequently diluted in semi-logarithmic steps. The cancer cell lines are seeded into 96 well flat bottom plates at respective cell densities in a volume of 200 μl per well to allow continuous proliferation during the experiment. 24 hours after seeding 1 μl each of the compound dilutions is added into each well of the 96 well plate. Wells containing untreated control cells are filled with 200 μl DMEM medium containing 0.5% v:v DMSO. The cells are then incubated with the substances for 72 hours at 37° C. in a humidified atmosphere containing 5% carbon dioxide. To determine the viability of the cells, 20 μl of a Resazurin solution (Sigma; 90 mg/l) are added. After 4 hours incubation at 37° C. the fluorescence is measured at an extinction of 544 nm and an emission of 590 nm. For the calculation of the cell viability the emission value from untreated cells is set as 100% viability and the emission rates of treated cells are set in relation to the values of untreated cells. Viabilities are expressed as % values. The corresponding pIC50 values of the compounds for cytotoxic activity are determined from the concentration-effect curves by means of non-linear regression.

[2] = molecular target: T1, rHDAC3 (Homo sapiens, UniProt O15379); assay: rHDAC3 enzymatic assay (recombinant FLAG-HDAC3); assay type: biochemical; details: FLAG-HDAC3 from insect cells; 6 μM Ac-NH-GGK(Ac)-AMC, 2 h at 30° C.; read-out: rHDAC3 [pIC50] (converted)
T1 construct: FLAG; made in house; host or cells: baculovirus-infected Sf21 insect cells
T1 sequence (O15379 whole entry): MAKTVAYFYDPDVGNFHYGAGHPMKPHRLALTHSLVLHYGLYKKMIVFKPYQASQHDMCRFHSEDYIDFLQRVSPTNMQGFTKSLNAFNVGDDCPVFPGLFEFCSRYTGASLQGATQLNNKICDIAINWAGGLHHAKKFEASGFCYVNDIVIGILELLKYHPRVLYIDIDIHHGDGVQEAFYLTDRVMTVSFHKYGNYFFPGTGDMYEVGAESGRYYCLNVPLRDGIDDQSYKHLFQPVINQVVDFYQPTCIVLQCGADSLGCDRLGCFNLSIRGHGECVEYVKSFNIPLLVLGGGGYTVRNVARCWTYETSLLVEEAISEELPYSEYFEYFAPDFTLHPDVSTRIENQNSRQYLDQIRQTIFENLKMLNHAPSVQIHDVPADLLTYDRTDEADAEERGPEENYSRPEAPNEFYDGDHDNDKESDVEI
T1 sequence (Q9Y618 whole entry partner): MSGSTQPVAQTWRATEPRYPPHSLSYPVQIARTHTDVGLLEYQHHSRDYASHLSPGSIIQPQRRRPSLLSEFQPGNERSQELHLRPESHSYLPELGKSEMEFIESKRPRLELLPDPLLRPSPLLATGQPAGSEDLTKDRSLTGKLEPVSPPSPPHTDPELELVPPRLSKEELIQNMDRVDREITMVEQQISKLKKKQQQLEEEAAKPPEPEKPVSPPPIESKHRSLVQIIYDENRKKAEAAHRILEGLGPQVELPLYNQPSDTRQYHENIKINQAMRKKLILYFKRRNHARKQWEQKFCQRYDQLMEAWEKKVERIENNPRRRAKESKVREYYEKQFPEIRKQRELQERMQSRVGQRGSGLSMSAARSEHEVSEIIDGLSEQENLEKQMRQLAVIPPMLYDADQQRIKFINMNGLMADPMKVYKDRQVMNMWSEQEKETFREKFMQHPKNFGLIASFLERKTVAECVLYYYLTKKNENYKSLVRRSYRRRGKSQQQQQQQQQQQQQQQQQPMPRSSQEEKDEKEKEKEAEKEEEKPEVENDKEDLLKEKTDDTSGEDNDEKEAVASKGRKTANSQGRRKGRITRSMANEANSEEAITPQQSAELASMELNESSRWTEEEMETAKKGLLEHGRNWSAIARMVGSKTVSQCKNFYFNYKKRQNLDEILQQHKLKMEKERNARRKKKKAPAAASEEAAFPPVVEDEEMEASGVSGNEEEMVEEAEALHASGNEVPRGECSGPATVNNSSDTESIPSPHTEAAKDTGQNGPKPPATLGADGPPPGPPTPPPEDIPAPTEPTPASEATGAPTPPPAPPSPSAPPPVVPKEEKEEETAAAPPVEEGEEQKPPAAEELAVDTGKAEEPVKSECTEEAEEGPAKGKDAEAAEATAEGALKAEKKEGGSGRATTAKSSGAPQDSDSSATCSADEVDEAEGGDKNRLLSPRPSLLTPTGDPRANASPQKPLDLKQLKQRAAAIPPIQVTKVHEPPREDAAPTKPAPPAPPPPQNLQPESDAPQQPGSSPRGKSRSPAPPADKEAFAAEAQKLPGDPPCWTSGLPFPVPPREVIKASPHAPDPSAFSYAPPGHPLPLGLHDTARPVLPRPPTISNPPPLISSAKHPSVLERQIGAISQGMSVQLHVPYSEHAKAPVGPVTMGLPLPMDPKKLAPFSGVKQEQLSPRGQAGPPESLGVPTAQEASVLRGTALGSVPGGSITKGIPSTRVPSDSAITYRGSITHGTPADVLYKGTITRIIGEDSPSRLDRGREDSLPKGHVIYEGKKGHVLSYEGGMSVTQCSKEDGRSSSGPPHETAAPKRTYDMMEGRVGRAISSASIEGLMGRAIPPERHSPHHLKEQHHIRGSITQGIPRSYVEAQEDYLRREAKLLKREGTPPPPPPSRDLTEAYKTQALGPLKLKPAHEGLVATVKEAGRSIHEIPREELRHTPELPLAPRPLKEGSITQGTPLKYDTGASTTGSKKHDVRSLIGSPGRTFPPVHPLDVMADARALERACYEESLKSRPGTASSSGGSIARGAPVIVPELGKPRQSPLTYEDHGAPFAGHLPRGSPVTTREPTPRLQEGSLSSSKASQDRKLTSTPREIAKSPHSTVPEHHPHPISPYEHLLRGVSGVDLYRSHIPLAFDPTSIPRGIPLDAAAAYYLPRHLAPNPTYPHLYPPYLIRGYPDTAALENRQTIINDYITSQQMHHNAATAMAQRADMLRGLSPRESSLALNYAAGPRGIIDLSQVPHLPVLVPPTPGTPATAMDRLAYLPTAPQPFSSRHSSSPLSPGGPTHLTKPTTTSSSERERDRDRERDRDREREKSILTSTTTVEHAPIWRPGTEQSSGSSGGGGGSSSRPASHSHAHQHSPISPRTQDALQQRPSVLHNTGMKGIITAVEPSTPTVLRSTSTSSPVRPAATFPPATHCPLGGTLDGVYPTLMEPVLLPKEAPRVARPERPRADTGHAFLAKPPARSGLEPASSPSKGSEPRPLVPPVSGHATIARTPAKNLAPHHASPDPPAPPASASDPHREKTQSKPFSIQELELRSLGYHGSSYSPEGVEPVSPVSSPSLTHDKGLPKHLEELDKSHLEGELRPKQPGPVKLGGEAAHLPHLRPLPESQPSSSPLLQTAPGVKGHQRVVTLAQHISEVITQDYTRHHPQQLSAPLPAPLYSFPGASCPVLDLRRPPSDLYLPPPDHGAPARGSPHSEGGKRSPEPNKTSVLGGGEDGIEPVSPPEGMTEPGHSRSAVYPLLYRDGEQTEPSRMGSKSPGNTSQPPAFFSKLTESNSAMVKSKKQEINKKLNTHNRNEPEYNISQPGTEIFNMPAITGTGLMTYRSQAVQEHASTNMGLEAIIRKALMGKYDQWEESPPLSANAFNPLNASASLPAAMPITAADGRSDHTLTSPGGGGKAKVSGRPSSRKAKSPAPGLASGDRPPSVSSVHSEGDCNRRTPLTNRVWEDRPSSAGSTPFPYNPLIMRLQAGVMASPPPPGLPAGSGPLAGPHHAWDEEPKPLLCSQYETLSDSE
Source text: (§2) Human HDAC1 and HDAC6 fused with the FLAG epitope are stably expressed in HEK293 cells while human HDAC3 and HDAC8 fused with the FLAG epitope are overexpressed in baculo-virus infected insect (Sf21) cells. To ensure stability of FLAG-HDAC3 the SMRT protein is co-expressed in the corresponding insect cells. […] FLAG-HDAC3 and FLAG-HDAC8 are also purified by M2-agarose affinity chromatography after mass cultivation of the insect cells and cell lysis.
(§3) The HDAC enzyme activity assay is done as described by Wegener et al. (Chem. & Biol. 10, 61-68, 2003). Briefly 40 μl of a 1:100 dilution (=0.4 μl) nuclear HeLa extract (mixture of class I and II HDACs), 29 μl enzyme buffer (15 mM Tris HCl pH 8.1, 0.25 mM EDTA, 250 mM NaCl, 10% v:v glycerol) and 1 μl test compound are added to a well of a 96 well microtiter plate and reaction started by addition of 3 μl substrate (Ac-NH-GGK(Ac)-AMC; final concentration 25 μM and final volume […]). […] After incubation at room temperature for further 40 min, fluorescence is measured using a Wallac Victor 1420 multilabel counter (Ex 355 nm, Em 460 nm) for quantification of AMC (7-amino-4-methylcoumarin) generated by trypsine cleavage of the deacetylated peptide. […] The corresponding pIC50 values of the compounds for HDAC inhibitory activity are determined from the concentration-effect curves by means of non-linear regression (Graphpad Prism software).
(§4) The HDAC1, HDAC3 and HDAC6 enzymatic assays are done with slight modifications with recombinant FLAG-HDAC1 and FLAG-HDAC6 proteins isolated from HEK293 cell lysates or recombinant FLAG-HDAC3 isolated from insect cells, respectively. The HDAC8 enzymatic assay using recombinant FLAG-HDAC8 isolated from insect cells is done with a different substrate. About 4.5 ng/well FLAG-HDAC1 and 3.1 ng/well FLAG-HDAC6 (dependent on batches and specific activity) are incubated with 6 μM or 10 μM Ac-NH-GGK(Ac)-AMC substrate, respectively, for 3 h at 30° C. About 1.7 ng/well FLAG-HDAC3 is incubated with 6 μM Ac-NH-GGK(Ac)-AMC substrate for 2 h at 30° C., while approximately 130 ng/well FLAG-HDAC8 is incubated with 50 μM Ac-RHK(Ac)K(Ac)-AMC substrate for 3 h at 30° C. Termination of the reaction and all further steps are done as described for HeLa cell nuclear extracts as a source for HDAC enzymatic activity. The corresponding pIC50 values of the compounds for HDAC1, HDAC3, HDAC6 and HDAC8 inhibitory activity are determined from the concentration-effect curves by means of non-linear regression.

[3] = molecular target: T2, rHDAC1 (Homo sapiens, UniProt Q13547); assay: rHDAC1 enzymatic assay (recombinant FLAG-HDAC1); assay type: biochemical; details: FLAG-HDAC1 from HEK293; 6 μM Ac-NH-GGK(Ac)-AMC, 3 h at 30° C.; read-out: rHDAC1 [pIC50] (converted)
T2 construct: FLAG; made in house
T2 sequence (Q13547 whole entry): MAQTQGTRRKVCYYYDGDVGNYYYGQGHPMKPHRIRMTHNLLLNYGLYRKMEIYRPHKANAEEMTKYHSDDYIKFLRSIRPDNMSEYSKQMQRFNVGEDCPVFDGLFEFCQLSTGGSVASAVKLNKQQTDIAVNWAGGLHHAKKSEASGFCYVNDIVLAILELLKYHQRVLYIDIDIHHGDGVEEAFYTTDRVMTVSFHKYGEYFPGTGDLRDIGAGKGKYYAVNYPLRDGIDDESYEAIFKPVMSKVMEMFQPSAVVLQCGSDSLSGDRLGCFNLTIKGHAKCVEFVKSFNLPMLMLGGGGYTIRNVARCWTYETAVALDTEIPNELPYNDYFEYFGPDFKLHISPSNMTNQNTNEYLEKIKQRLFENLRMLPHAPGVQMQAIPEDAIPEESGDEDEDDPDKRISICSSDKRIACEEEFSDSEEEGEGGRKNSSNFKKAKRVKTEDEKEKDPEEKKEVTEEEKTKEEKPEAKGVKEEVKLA
Source text: as §2, §3, §4

[4] = molecular target: T3, rHDAC8 (Homo sapiens, UniProt Q9BY41); assay: rHDAC8 enzymatic assay (recombinant FLAG-HDAC8); assay type: biochemical; details: FLAG-HDAC8 from insect cells; 50 μM Ac-RHK(Ac)K(Ac)-AMC, 3 h at 30° C.; read-out: rHDAC8 [pIC50] (converted)
T3 construct: FLAG; made in house; host or cells: baculovirus-infected Sf21 insect cells
T3 sequence (Q9BY41 1-377): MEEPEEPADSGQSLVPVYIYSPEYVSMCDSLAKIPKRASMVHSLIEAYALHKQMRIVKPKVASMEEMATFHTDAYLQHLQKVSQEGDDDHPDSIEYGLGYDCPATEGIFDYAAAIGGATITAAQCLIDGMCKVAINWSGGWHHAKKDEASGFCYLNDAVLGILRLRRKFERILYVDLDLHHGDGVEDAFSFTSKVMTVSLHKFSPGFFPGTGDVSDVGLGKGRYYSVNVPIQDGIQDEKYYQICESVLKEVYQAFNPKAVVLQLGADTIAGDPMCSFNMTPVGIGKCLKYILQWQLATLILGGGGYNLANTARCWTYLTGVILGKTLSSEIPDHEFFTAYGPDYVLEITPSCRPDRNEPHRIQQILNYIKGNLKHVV
Source text: as §2, §3, §4

[5] = Cellular cytotoxicity assay (Alamar Blue/Resazurin), HeLa; assay type: cell-based; details: human, HeLa cells, 72 hours incubation, Resazurin, read-out: HeLa Cytotoxicity [pIC50] (converted)
Experimental: as §1

Row | SMILES | IC50 at 72 h [1] | IC50 [2] | IC50 [3] | IC50 [4] | IC50 at 72 h [5]
1 | COc1ccc2[nH]c(C(=O)N3CCc4ccc(C(=O)NO)cc4C3)cc2c1 [Example 24, N-Hydroxy-2-[(5-methoxy-1H-indol-2-yl)carbonyl]-1,2,3,4-tetrahydroisoquinoline-7-carboxamide] | 1 to 100 µM | 1 to 10 µM | 0.1 to 10 µM | 0.01 to 1 µM | 1 to 100 µM
2 | O=C(NO)c1ccc2c(c1)CN(C(=O)C1CCOC1)CC2 (stereo not drawn) [Example 20, N-Hydroxy-2-(tetrahydrofuran-3-ylcarbonyl)-1,2,3,4-tetrahydroisoquinoline-7-carboxamide] | > 100 µM | 10 to 100 µM | 0.1 to 10 µM | 0.01 to 1 µM | > 100 µM
3 | O=C(NO)c1ccc2c(c1)CCN(C(=O)C1CCC1)C2 [Example 3, 2-(Cyclobutylcarbonyl)-N-hydroxy-1,2,3,4-tetrahydroisoquinoline-6-carboxamide] | > 100 µM | 10 to 100 µM | 0.1 to 10 µM | 1 to 10 µM | 1 to 100 µM
4 | Cc1nccn1CC(=O)N1CCc2cc(C(=O)NO)ccc2C1 [Example 10, N-Hydroxy-2-[(2-methyl-1H-imidazol-1-yl)acetyl]-1,2,3,4-tetrahydroisoquinoline-6-carboxamide hydrochloride] | – | 10 to 100 µM | 10 to 100 µM | 1 to 10 µM | > 100 µM
5 | O=C(NO)c1ccc2c(c1)CN(C(=O)Cc1c[nH]c3ccccc13)CC2 [Example 18, N-Hydroxy-2-(1H-indol-3-ylacetyl)-1,2,3,4-tetrahydroisoquinoline-7-carboxamide] | – | 1 to 10 µM | 0.1 to 10 µM | 0.01 to 1 µM | 1 to 100 µM
6 | COCCCOC(=O)N1CCc2cc(C(=O)NO)ccc2C1 [Example 6, 3-Methoxypropyl-6-(hydroxycarbamoyl)-3,4-dihydroisoquinoline-2(1H)-carboxylate] | > 100 µM | 10 to 100 µM | 10 to 100 µM | 1 to 10 µM | > 100 µM
7 | COCCCNC(=O)N1CCc2cc(C(=O)NO)ccc2C1 [Example 5, N6-Hydroxy-N2-(3-methoxypropyl)-3,4-dihydroisoquinoline-2,6(1H)-dicarboxamide] | > 100 µM | 10 to 100 µM | 0.1 to 10 µM | 1 to 10 µM | > 100 µM
8 | O=C(NO)c1ccc2c(c1)CCN(C(=O)C1CCOC1)C2 (stereo not drawn) [Example 13, N-Hydroxy-2-(tetrahydrofuran-3-ylcarbonyl)-1,2,3,4-tetrahydroisoquinoline-6-carboxamide] | > 100 µM | 10 to 100 µM | 10 to 100 µM | 1 to 10 µM | > 100 µM
9 | O=C(NO)c1ccc2c(c1)CN(C(=O)Cc1cccnc1)CC2 [Example 19, N-Hydroxy-2-(pyridin-3-ylacetyl)-1,2,3,4-tetrahydroisoquinoline-7-carboxamide hydrochloride] | – | 10 to 100 µM | 0.1 to 10 µM | 0.01 to 1 µM | 1 to 100 µM
